Results from US8603806B2, “Materials and methods for cell-based assays” (The Ohio State Universtiy Research Foundation, priority 2005, dated 2013).
pIC50: −log10 of the molar value. ≈ marks a conversion by molar mass, not a printed value. Entries after “also recorded” stand apart in the source; their conditions may differ. Like-named read-outs stand apart in the source and are kept apart here.

Experiments:
[1] = test system: ES-GFP cells; assay: Effect of fibronectin coating of PET matrix on ES-GFP cell growth; format: cell-based
Protocol: Similarly, ES-GFP cells were used to study the effects of fibronectin coating of the PET matrix on cell growth. Fibronectin is involved in many cellular processes, one of which is to serve as a general cell adhesion molecule to help cells anchor onto proteoglycan or collagen substrates. Fibronectin is a commonly used extracellular matrix protein to enhance cell adhesion on the tissue scaffold. PET matrices were soaked in 10 μg/ml fibronectin (Sigma Chemical Company, St. Louis, Mo.) for 12 hours before use. The fibronectin-coated matrices were then placed in the growth medium and seeded with ES-GFP cells from the top of the scaffolds. […] Also, cells cultured in the fibronectin-coated matrix reached a maximum fluorescence intensity of 4000 RFU that was ˜2.5 times of that without fibronectin coating at 128 h. […] Cell spreading can also stimulate cell proliferation and contributes to uniform cell distribution in the 3-D matrix, which in turn allowed more light emission from the matrix. It is noted that cells developed different morphologies in these two matrices, with large aggregates formed in the matrix without fibronectin coating (FIG. 9D). The formation of large cell aggregates could add additional mass transfer limitation and further reduce cell growth. The adhesion of cells to PET fibers is important to determine the cell growth in the 3-D matrix.

[2] = test system: HT-29-GFP; assay: HT-29-GFP proliferation assay, 2-D with cell counting; format: cell-based; details: Homo sapiens, read-out: 2-D with cell counting (Ig50)
Excerpt: (§1) Colon cancer is the third most frequently occurring cancer in the US and causes large numbers of deaths, second only to lung cancer. Treatment of progressed colon cancer involves surgical extraction combining chemotherapy and immunotherapy. The survival rate of colon cancer patients is only 55% due to the low effectiveness of these therapies. […] Butyric acid is a biological response modifier (BRM) and it acts synergistically with 5-FU against colorectal cancers by decreasing thymidine kinase mRNA. As a BRM, it can also increase cell specific productivity at the expense of inhibiting cell growth. […] In this case, the cytotoxicity of a chemical in 3-D cultures was defined as a concentration range of the chemical.

[3] = test system: HT-29-GFP
Excerpt: as §1

[4] = test system: HT-29-GFP; details: for times more resistance in tumor-like structure: compared with the results from 3-D proliferation assays (3-D low density cells); for time after drug adding at which fluorescence changed / effectiveness on high density colon cancer cells: tumor-like constructs
Excerpt: as §1
Gemcitabine is an S-phase specific drug.

[5] = test system: ES cells; assay: 3-D cytotoxicity (proliferation) assay, ES-GFP cells in PET scaffolds, low density; format: cell-based; details: for IC50: read-out: 3-D cultures Ig50; for Ig50 in 2-D as times of Ig50 in 3-D: ratio 2-D/3-D
Protocol: For the 3-D cytotoxicity assay, 25000 cells in 25 μl medium were seeded into each PET scaffold. After 6 h incubation to allow cell attachment, 180 μl medium were added to each well and incubated for another 18 h before transferring the seeded matrix to the center of the microbioreactor chamber containing 3 ml of the ES medium on the modified 96-well plate. The plates were then stacked onto a rotational shaker and put into a 37° C. CO2 incubator. The culture fluorescence was measured twice per day with a Cytofluor Series 4000 plate reader. Fluorescence signals from live cells were calculated as the values from the central well of the bioreactor minus the background from the surrounding medium and scaffold.
(§2) With the exponential-phase specific growth rate data, the cytotoxicity of various chemicals can be better evaluated by their Ig50 values defined as the concentration of the chemical causing 50% reduction in the exponential-phase specific cell growth rate.

[6] = test system: ES cells; assay: 2-D cytotoxicity assay, ES-GFP cells in 96-well plates; format: cell-based; details: concentration causing 50% reduction in exponential-phase specific growth rate, drug added one day after inoculation; for IC50: read-out: 2-D cultures Ig50
Protocol: The 2-D cytotoxicity assay was performed in 96-well plates by inoculating 5000 cells into each well containing 150 μl of ES medium. The drug was added one day after inoculation. Fluorescent signals were measured twice per day in the culture plates. The fluorescence given by live cells was calculated as the signals obtained after replacing culture medium with the same volume of PBS minus the blanks.
as §2

[7] = test system: ES cells; assay: 3-D high-density ES tissue constructs cytotoxicity; format: cell-based; details: for Extent of cell kill: 3-D high-density, at maximum dose; for Rf (resistance factor): ratio between EC50 and Ig50; for EC50: 3-D high-density cell cultures, 50% of maximum fluorescence reduction, exposure four or six days after seeding
Excerpt: The effects of various drugs on ES cells grown in 3-D after reaching a high cell density (exposure four or six days after seeding the matrices) were studied and the results are shown in FIG. 14. EC50 (the concentration required for obtaining 50% of a maximum effect) is used to evaluate a drug's cytotoxicity effect on a high-density 3-D cell or tissue construct. Here, if the elimination of cells is considered as the maximum effect of a chemical, an EC50 is not always reached. […] For this case, the maximum effects were defined as the fluorescence reduction caused by the saturation concentration (DM and DPH) or a very high dose compared to doses used in 2-D assays (Penicillin G and 5-FU). In addition, it was also noticed that maximal effects changed along with time, so the time point with the largest value of the maximal effects was used for cytotoxicity definition. Rf (resistance factor) is defined as the ratio between EC50 and Ig50.

[8] = test system: HT-29; assay: Perfusion culture of HT-29 in microfluidic bioreactor array; format: cell-based, human; details: 2 μg/ml fed continuously from beginning of perfusion; vs control without drug
Protocol: A human colon cancer cell line HT-29 (ATCC: HTB-38™) was maintained in Dulbecco's Modified Eagle's Medium (DMEM, Gibco) supplemented with 10% fetal bovine serum (FBS, Gibco) in a cell culture incubator at 37° C. with 5% CO2. […] Then cells were diluted and seeded in a 96 well plate at around 5 cells per well. One green fluorescent colony was isolated and expanded in the absence of selective pressure geneticin (G-418, Gibco). The stability of the transfected cell line was verified by FACSCalibur (B-D) (>97%) compared to the negative control.
Before cell culture, the PET matrices were cut to small square patches (2.5 mm×3 mm) and then soaked in water and sterilized in an autoclave at 121° C. for 15 min. […] Then each seeded scaffold was transferred gently to a new well on the same 384-well plate, which was followed by fluorescence intensity measurement in the microplate reader at 485 nm excitation and 535 nm emission. The scaffolds with similar fluorescence intensity were selected and transferred to the wells in the middle two rows of the microbioreactor array. […]
Four 10 mL, syringes were autoclaved and filled with the maintenance media, which were then seated on a syringe pump (PHD 2000, Harvard Apparatus). […] Cell proliferation was analyzed twice a day with the specific plate definition scheme in the microplate reader. […]

[9] = test system: embryonic stem cell; details: embryotoxicity test previously reported; cited from earlier work
[10] = test system: embryonic stem cell; details: embryotoxicity test previously reported; cited from earlier work; remark: listed apart in the source
[11] = test system: ES-GFP cells; assay: Acute cytotoxicity live-cell kinetic assay, 3-D ES-GFP; format: cell-based; details: high density 3-D ES-GFP, 2000 RFU; different doses
Protocol: For the live-cell kinetic assays, acute cellular events can be easily characterized with online continuous fluorescence measurements without human intervention. The 3-D cell-based assay system was thus applied to test the response of ES-GFP cells to a surfactant, Triton X-100 (Sigma Chemical Company, St. Louis, Mo.). ES-GFP cells in the 3-D system were cultured to reach a high density with 2000 RFU fluorescence intensity. After applying different doses of Triton X-100, the culture plate was immediately put into the plate reader (Cytofluor Series 4000) at 37° C., with the cycle number set at 80 and cycle time at 3 min. The mixing time before each reading was 10 seconds. […] In general, increasing the surfactant concentration in the medium increased cell death, which followed a first order kinetics as indicated by the linear semilogarithmic plot (FIG. 10B). Triton X-100 is a non-ionic detergent commonly used to solubilize membrane proteins. The specific death rate kd at each Triton X-100 concentration can be estimated from the negative slope of the semi-log plots. […] The loss in the fluorescence signal for the control experiment without the surfactant was negligible and the slight decrease could be attributed to a slow increase in the medium pH outside the CO2 incubator. GFP fluorescence is marginally affected by the solution pH when it is in the neutral pH range.

[12] = concentration causing 50% reduction in exponential-phase specific growth rate, drug added one day after seeding

Molecule: fibronectin
- specific growth rate ([1]; PET matrices soaked in 10 μg/ml fibronectin, without coating 0.0335): 0.0458 h⁻¹
- maximum fluorescence intensity relative to that without fibronectin coating ([1]; at 128 h): ~2.5 times
- maximum fluorescence intensity ([1]; fibronectin-coated matrix, 128 h): 4000 RFU
- doubling time ([1]; with fibronectin coating, without coating 20.7): 15.1 h
- enhancement of specific growth rate ([1]; with vs without fibronectin coating): 37%

Molecule: CCCC(=O)[O-].[Na+] [Sodium butyrate, sodium butyrate]
- pIC50 [2]: 2.70
- 3-D with fluorescence, cytotoxicity concentration ([3]; 3-D low density, lowest concentration causing significant difference of fluorescent kinetics vs control): 2 to 8 mM
- 2-D with fluorescence, cytotoxicity concentration ([3]; lowest concentration causing significant difference of fluorescent kinetics vs control): 8 to 32 mM
- times more resistance in tumor-like structure [4]: (about 10 times
- times more resistance in tumor-like structure ([4]; listed as sodium butyrate): 10 times
- Tumor-like response assays, cytotoxicity concentration ([4]; drug added at high density): 10 to 100 mM
- time after drug adding at which fluorescence changed [4]: changed one day
- time after drug adding at which fluorescence changed ([4]; listed as sodium butyrate): one

Molecule: O=c1[nH]cc(F)c(=O)[nH]1 [5-FU, 5-fluorouracil]
- IC50 [5, 12]: 0.035 µg/mL (≈ 0.269 µM)
- IC50 [6]: 0.045 µg/mL (≈ 0.346 µM)
- effect on ES tissue constructs ([7]; 100 μg/ml, 3-D high density): no significant effect
- Extent of cell kill [7]: 20%
- Rf (resistance factor) [7]: >1000
- IC50 ([2]; HT-29-GFP 2-D): < 0.26 µg/mL
- 2-D with fluorescence, cytotoxicity concentration ([3]; human): 0.052 to 0.26 µg/mL
- 3-D with fluorescence, cytotoxicity concentration ([3]; human): 0.26 to 1.3 µg/mL
- Tumor-like response assays, cytotoxicity concentration ([4]; human): 10 to 100 µg/mL
- effect on HT-29 proliferation in perfusion culture [8]: significantly reduced cell proliferation; also recorded: significantly inhibited
- ZEBET IC50 [9]: 0.09 µg/mL
- ECVAM IC50 [10]: 0.065 µg/mL

Molecule: CC1(C)S[C@@H]2[C@H](NC(=O)Cc3ccccc3)C(=O)N2[C@H]1C(=O)O [Penicillin G, penicillin G]
- 3-D cultures Ig50 [5, 12]: 750 µg/mL
- Ig50 in 2-D as times of Ig50 in 3-D [5]: 6 times
- 2-D cultures Ig50 [6]: 4500 µg/mL
- EC50 [7]: 23000 µg/mL (≈ 68800 µM)
- Extent of cell kill [7]: 62.3%
- Rf (resistance factor) [7]: 30.7
- ZEBET IC50 [9]: 2100 µg/mL
- ECVAM IC50 [10]: 2000 µg/mL

Molecule: Triton X-100
- acute cellular response (loss in culture fluorescence) [11]: caused an acute cell death

Molecule: C[C@@H]1C[C@H]2[C@@H]3CCC4=CC(=O)C=C[C@]4(C)[C@@]3(F)[C@@H](O)C[C@]2(C)[C@@]1(O)C(=O)CO [DM, dexamethasone]
- IC50 [5, 12]: 11.5 µg/mL (≈ 29.3 µM)
- Ig50 in 2-D as times of Ig50 in 3-D [5]: 3 times
- IC50 [6]: 32 µg/mL (≈ 81.5 µM)
- Extent of cell kill [7]: 80.9%
- EC50 ([7]; 144 h, read-out: EC50): 65 µg/mL (≈ 166 µM)
- Rf (resistance factor) [7]: 5.7

Molecule: Nc1ccn([C@@H]2O[C@H](CO)[C@@H](O)C2(F)F)c(=O)n1 [Gemcitabine, gemcitabine]
- pIC50 ([2]; HT-29-GFP 2-D): 8.30
- 2-D with fluorescence, cytotoxicity concentration ([3]; human): 0.000625 mM
- 3-D with fluorescence, cytotoxicity concentration ([3]; human): 1e-06 to 5e-06 mM
- times more resistance in tumor-like structure [4]: (more than 1000 times
- Tumor-like response assays, cytotoxicity concentration ([4]; human): >1 mM
- effectiveness on high density colon cancer cells [4]: non-effective)
- effectiveness on high density colon cancer cells ([4]; listed as gemcitabine): totally resistant

Molecule: O=C1NC(=O)C(c2ccccc2)(c2ccccc2)N1 [DPH, diphenylhydantoin]
- IC50 [5, 12]: 39 µg/mL (≈ 155 µM)
- IC50 [6]: 30 µg/mL (≈ 119 µM)
- Extent of cell kill [7]: 52.2%
- EC50 ([7]; 144 h, read-out: EC50): 600 µg/mL (≈ 2380 µM)
- Rf (resistance factor) [7]: 15.4
